Results on 19 compounds are retold here after ChEMBL document CHEMBL1667752 (Eur J Med Chem, 2011).

For one experiment, the target named is Cannabinoid receptor 2 (Homo sapiens, UniProt P34972). The experiment can be described thus: Displacement of [3H]CP 55940 from human CB2 receptor in cell free system. As to conditions: read-out: Ki. On the technique in general: Displacement assays read how much labelled ligand stays bound in the presence of the test substance.
The next experiment deals with Cannabinoid receptor 1 (Homo sapiens, UniProt P21554). The experiment can be described thus: Displacement of [3H]CP 55940 from human CB1 receptor in cell free system.
For the next experiment, the species on record is Homo sapiens. Briefly: Selectivity ratio of Ki for human CB1 to Ki for human CB2.

Sequence of Cannabinoid receptor 2 (P34972 whole entry): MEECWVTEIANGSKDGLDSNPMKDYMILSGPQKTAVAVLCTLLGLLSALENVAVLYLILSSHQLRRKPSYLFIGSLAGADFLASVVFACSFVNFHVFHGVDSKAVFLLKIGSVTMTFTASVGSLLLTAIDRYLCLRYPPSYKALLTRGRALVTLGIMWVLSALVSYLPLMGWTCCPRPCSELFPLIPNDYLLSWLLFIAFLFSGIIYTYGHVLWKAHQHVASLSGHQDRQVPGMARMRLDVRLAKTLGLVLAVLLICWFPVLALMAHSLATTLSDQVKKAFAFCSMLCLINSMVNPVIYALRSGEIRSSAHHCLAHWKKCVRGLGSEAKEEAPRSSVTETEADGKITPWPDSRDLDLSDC
Sequence of Cannabinoid receptor 1 (P21554 whole entry): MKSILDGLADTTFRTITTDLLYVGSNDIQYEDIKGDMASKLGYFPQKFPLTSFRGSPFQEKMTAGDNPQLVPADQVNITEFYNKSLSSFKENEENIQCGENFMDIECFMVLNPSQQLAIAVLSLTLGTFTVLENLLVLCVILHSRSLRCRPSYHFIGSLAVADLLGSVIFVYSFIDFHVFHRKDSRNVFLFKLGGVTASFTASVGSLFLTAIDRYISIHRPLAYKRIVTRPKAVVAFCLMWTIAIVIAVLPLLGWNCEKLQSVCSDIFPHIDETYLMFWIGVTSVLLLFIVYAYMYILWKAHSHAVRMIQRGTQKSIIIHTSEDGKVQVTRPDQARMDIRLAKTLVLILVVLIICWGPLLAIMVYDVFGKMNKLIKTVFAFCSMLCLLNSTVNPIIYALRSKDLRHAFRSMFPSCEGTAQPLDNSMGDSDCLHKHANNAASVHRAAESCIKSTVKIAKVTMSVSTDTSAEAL

With `CC1=CC[C@@H]2[C@@H](C1)c1c(OC(=O)CCCN3CCOCC3)cc(C(C)(C)CCCCC#N)cc1OC2(C)C`, the Ki on Cannabinoid receptor 2 stood at 8 nM; on Cannabinoid receptor 1 it was 8.4 nM. In the experiment filed under Homo sapiens, the log(ratioKi) was 0.02.

As for `COCCn1c(C)c(C(C)(C)C)s/c1=N\C(=O)c1ccc(C(F)(F)F)cc1`, the Ki was found to be 10 nM at Cannabinoid receptor 2 and 4100 nM on Cannabinoid receptor 1. Also, in the experiment listed under Homo sapiens, the log(ratioKi) is 2.6.

`Cc1c(C(C)(C)C)s/c(=N\C(=O)c2ccc(OC(F)(F)F)cc2)n1CC1CC1`: the Ki at Cannabinoid receptor 2 was determined as 5.7 nM; on Cannabinoid receptor 1, 1100 nM. The log(ratioKi) in the experiment listed under Homo sapiens came to 2.28.

With `CCCCCCC1(c2cc(O)c3c(c2)OC(C)(C)[C@@H]2CC=C(C)C[C@@H]32)OCCO1`, the figures for the Ki at Cannabinoid receptor 2 and at Cannabinoid receptor 1 were 0.2 nM and 0.5 nM, respectively. Further, the log(ratioKi) in the experiment listed under Homo sapiens is 0.43.

As to `CCCCCn1c(C)c(C(=O)c2ccc(CCCC)c3ccc(C)cc23)c2ccccc21`, the inhibition constant (Ki) was determined as 6.5 nM at Cannabinoid receptor 2 and 42 nM on Cannabinoid receptor 1. For the same compound, in the experiment listed under Homo sapiens, the log(ratioKi) came to 0.81.

Consider `Cc1ccc(C(=O)NC2C(C)(C)[C@@H]3CC[C@]2(C)C3)cc1S(=O)(=O)N1CCOCC1` (some centres not stated), for which the results for the Ki on Cannabinoid receptor 2 and at Cannabinoid receptor 1 were 3.9 nM and 130 nM, respectively. The log(ratioKi) in the experiment listed under Homo sapiens is 1.5.

In the case of `Cc1nc(C(=O)Nc2ccccc2C(F)(F)F)c(C)n1-c1ccccc1`, the figures for the inhibition constant Ki on Cannabinoid receptor 2 and on Cannabinoid receptor 1 were 3.5 nM and 1420 nM, respectively. For the same compound, the log(ratioKi) in the experiment listed under Homo sapiens was 2.6.

`Cc1ccc2c(c1)Cc1c(C(=O)NN3CCCCC3)nn(-c3ccc(Cl)cc3Cl)c1-2`: the inhibition constant (Ki) at Cannabinoid receptor 2 was 0.04 nM; on Cannabinoid receptor 1, 363 nM. The log(ratioKi) in the experiment filed under Homo sapiens worked out at 3.95.

On to `CCCCCn1cc(C(=O)NC23CC4CC(CC(C4)C2)C3)c(=O)c2cccc(C)c21`, for which the results for the inhibition constant (Ki) on Cannabinoid receptor 2 and at Cannabinoid receptor 1 were 4.9 nM and over 10000 nM, respectively. Moreover, the log(ratioKi) in the experiment listed under Homo sapiens was over 3.3.

For the compound `C=C1CC[C@@H]2[C@@H](C1)c1c(OC)cc(C(C)(C)CCCCCC)cc1OC2(C)C`, the Ki on Cannabinoid receptor 2 was determined as 11.8 nM; on Cannabinoid receptor 1 it was 4890 nM. In addition, the log(ratioKi) in the experiment filed under Homo sapiens amounted to 2.26.

With `CC1(C)C(C(=O)c2cn(CC3CCOCC3)c3cc(O)ccc23)C1(C)C`, the inhibition constant (Ki) on Cannabinoid receptor 2 amounted to 8.3 nM; at Cannabinoid receptor 1, 2950 nM. The log(ratioKi) in the experiment filed under Homo sapiens amounted to 2.55.

Turning to `CCC(C)(C)C(=O)Cc1cc(C)c(C)c(S(=O)(=O)N2CCCCC2)c1`, the values for the Ki at Cannabinoid receptor 2 and on Cannabinoid receptor 1 were 2.7 nM and 650 nM, respectively. Further, the log(ratioKi) in the experiment listed under Homo sapiens turned out to be 2.38.

Regarding `CCCCCCC1(c2cc(O)c3c(c2)OC(C)(C)[C@@H]2CC=C(C)C[C@@H]32)CC1(Cl)Cl` (some centres not stated), the Ki at Cannabinoid receptor 2 was 1.3 nM; on Cannabinoid receptor 1 it was 1.8 nM. For the same compound, the log(ratioKi) in the experiment listed under Homo sapiens was found to be 0.19.

Consider `Cc1ccc2c(=O)c(C(=O)NC3CCCC3)cn(CCN3CCOCC3)c2n1`, for which the values for the inhibition constant (Ki) at Cannabinoid receptor 2 and at Cannabinoid receptor 1 were 50 nM and 1000 nM, respectively. Also, the log(ratioKi) in the experiment listed under Homo sapiens worked out at 1.3.

For `CC1(C)C(C(=O)c2cn(CC3CCOCC3)c3ccc(N)cc23)C1(C)C`, the Ki at Cannabinoid receptor 2 amounted to 9 nM; at Cannabinoid receptor 1 it was 1000 nM. Further, the log(ratioKi) in the experiment listed under Homo sapiens came out at 2.05.

As to `CCC1CCC(C(=O)c2cn(CCN3CCOCC3)c3ccccc23)CC1` (configuration not stated), the Ki at Cannabinoid receptor 2 was found to be 16 nM; at Cannabinoid receptor 1, 616 nM. Moreover, in the experiment filed under Homo sapiens, the log(ratioKi) stood at 1.58.

Take `CCCCCn1c(C)c(C(=O)c2ccc(CCC)c3ccccc23)c2ccccc21`: the inhibition constant Ki on Cannabinoid receptor 2 stood at 0.6 nM; at Cannabinoid receptor 1, 1.3 nM. For the same compound, the log(ratioKi) in the experiment listed under Homo sapiens was determined as 0.32.

As to `CC1=CC[C@@H]2[C@@H](C1)c1c(O)cc(C(C)(C)c3cccs3)cc1OC2(C)C`, the Ki amounted to 0.91 nM at Cannabinoid receptor 2 and 12.3 nM at Cannabinoid receptor 1. Besides, the log(ratioKi) in the experiment listed under Homo sapiens was 1.13.

For the compound `Cc1c(C(C)(C)C)s/c(=N\S(=O)(=O)c2cccc3ccccc23)n1C1CC1`, the Ki turned out to be 16 nM on Cannabinoid receptor 2 and 1700 nM on Cannabinoid receptor 1. Moreover, the log(ratioKi) in the experiment filed under Homo sapiens came to 2.02.

For orientation: Ki means a measure of affinity in units of concentration, obtained from inhibition or displacement.
